Active and inactive are the calls of the source. No cut-off for these calls is given here.
Tests used:
[1] = biological target: Glycogen synthase kinase-3 beta (Homo sapiens, UniProt P49841); assay: Inhibition of recombinant human N-terminal His-tagged GSK-3beta expressed in Escherichia coli using glycogen synthase-2 as substrate and ATP measured after 30 mins by Kinase-Glo luminescent kinase assay
Mus musculus [2] = assay: Antidepressant activity in Swiss albino mouse assessed as duration of immobility at 50 mg/kg, po dosed 1 hr before test measured after 6 mins by tail suspension test (reference value: 183 sec)
Mus musculus [3] = assay: Antidepressant activity in Swiss albino mouse assessed as reduction in duration of immobility at 50 mg/kg, po dosed 1 hr before test measured after 6 mins by forced swim test relative to control; format: functional, organism-based

Glycogen synthase kinase-3 beta, sequence (P49841 whole entry): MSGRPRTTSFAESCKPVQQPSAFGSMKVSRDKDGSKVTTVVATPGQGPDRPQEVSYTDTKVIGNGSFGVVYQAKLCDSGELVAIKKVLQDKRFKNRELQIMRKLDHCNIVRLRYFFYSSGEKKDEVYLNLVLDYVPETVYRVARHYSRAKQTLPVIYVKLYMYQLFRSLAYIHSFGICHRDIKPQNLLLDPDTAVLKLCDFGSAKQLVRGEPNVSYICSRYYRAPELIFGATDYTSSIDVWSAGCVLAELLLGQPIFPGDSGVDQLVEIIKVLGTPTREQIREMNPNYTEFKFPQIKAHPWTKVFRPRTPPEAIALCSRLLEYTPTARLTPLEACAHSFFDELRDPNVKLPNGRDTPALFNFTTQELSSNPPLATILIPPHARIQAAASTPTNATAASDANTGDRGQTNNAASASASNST

CCCCNc1nnc(Cn2c(C)nc3ccccc32)s1
IC50 [1]: 0.582 µM

Cc1nc2ccccc2n1Cc1nnc(Nc2ccccc2)s1
IC50 [1]: 0.157 µM

COc1ccc(Nc2nnc(Cn3c(C)nc4ccccc43)s2)cc1
IC50 [1]: 0.151 µM

Cc1nc2ccccc2n1Cc1nnc(Nc2ccc([N+](=O)[O-])cc2)s1
IC50 [1]: 0.107 µM
Time (Mus musculus [2]): 174 s

Cc1nc2ccccc2n1Cc1nnc(NC2CCCCC2)s1
IC50 [1]: 0.406 µM

Cc1nc2ccccc2n1CC(=O)NNC(=O)Cc1cccc2ccccc12
IC50 [1]: 0.157 µM

COc1ccc(C(=O)CCC(=O)NNC(=O)Cn2c(C)nc3ccccc32)cc1
IC50 [1]: 0.561 µM

CCOc1ccc(Nc2nnc(Cn3c(C)nc4ccccc43)s2)cc1
IC50 [1]: 0.293 µM

Cc1nc2ccccc2n1Cc1nnc(Nc2ccc(Br)cc2)s1
IC50 [1]: 0.173 µM

Cc1nc2ccccc2n1CC(=O)NNC(=O)CCC(=O)c1ccc(Oc2ccccc2)cc1
IC50 [1]: 0.08 µM
Time (Mus musculus [2]): 135 s
Activity (Mus musculus [3]): Active

Cc1nc2ccccc2n1CC(=O)NNC(=O)Cc1ccc([N+](=O)[O-])cc1
IC50 [1]: 0.205 µM

COc1ccccc1Nc1nnc(Cn2c(C)nc3ccccc32)s1
IC50 [1]: 0.184 µM

Cc1nc2ccccc2n1CC(=O)NNC(=O)c1c[nH]c2ccccc12
IC50 [1]: 0.148 µM

Cc1nc2ccccc2n1Cc1nnc(Nc2ccccc2F)s1
IC50 [1]: 0.076 µM
Time (Mus musculus [2]): 120 s
Activity (Mus musculus [3]): Active

Cc1nc2ccccc2n1Cc1nnc(Nc2ccc(F)cc2)s1
IC50 [1]: 0.134 µM

Cc1nc2ccccc2n1Cc1nnc(Nc2ccc(Cl)cc2)s1
IC50 [1]: 0.145 µM

Cc1ccccc1CC(=O)NNC(=O)Cn1c(C)nc2ccccc21
IC50 [1]: 0.092 µM
Time (Mus musculus [2]): 168 s

COc1ccc(CC(=O)NNC(=O)Cn2c(C)nc3ccccc32)cc1
IC50 [1]: 0.379 µM

CNCCC(Oc1ccc(C(F)(F)F)cc1)c1ccccc1 (centres undefined) [FLUOXETINE]
Time (Mus musculus [2]): 153 s

Cc1nc2ccccc2n1CC(=O)NNC(=O)Cc1ccc(Cl)cc1
IC50 [1]: 0.131 µM

Cc1nc2ccccc2n1Cc1nnc(Nc2ccccc2Br)s1
IC50 [1]: 0.19 µM

Cc1nc2ccccc2n1Cc1nnc(Nc2ccccc2Cl)s1
IC50 [1]: 0.122 µM

Cc1nc2ccccc2n1CC(=O)NNC(=O)c1ccc[nH]1
IC50 [1]: 0.124 µM

Cc1nc2ccccc2n1CC(=O)NNC(=O)Cc1cc2ccccc2[nH]1
IC50 [1]: 0.135 µM

Cc1nc2ccccc2n1CC(=O)NNC(=O)Cc1ccccc1
IC50 [1]: 0.105 µM

Cc1nc2ccccc2n1CC(=O)NNC(=O)C(=O)c1c[nH]c2ccccc12
IC50 [1]: 0.072 µM
Time (Mus musculus [2]): 105 s
Activity (Mus musculus [3]): Active

From ChEMBL document CHEMBL3826872, “Synthesis of benzimidazole based thiadiazole and carbohydrazide conjugates as glycogen synthase kinase-3β inhibitors with anti-depressant activity” (Bioorg Med Chem Lett, 2016)
